Reference: US8846367B2, “Coryneform bacterium transformant and process for producing phenol using the same” (Green Phenol Development Co., Ltd., priority 2010, dated 2014)
Read-outs that look alike come from different tables or passages of the source.

How the values were obtained:
Escherichia coli JM109 = conditions: aerobic culture, LB liquid medium, 37° C.
Procedure: (§1) A growth inhibition test in aerobic culture was performed to examine the influence of phenol on Corynebacterium glutamicum, Escherichia coli, and Pseudomonas putida. Pseudomonas putida S12, which was used for the test, is reported to be a solvent-resistant strain. In the report, disclosed is an unparalleled technology using the strain as a host in phenol production.
Escherichia coli JM109 was applied to LB agar medium (1% polypeptone, 0.5% yeast extract, 0.5% NaCl and 1.5% agar) and was left stand in the dark at 37° C. for 15 hours.
An inoculation loop of the Escherichia coli JM109 grown on a plate as above was inoculated into a test tube containing 10 mL of LB liquid medium (1% polypeptone, 0.5% yeast extract, and 0.5% NaCl), and aerobic culture was performed with shaking at 37° C. for 13 hours.
(§2) The Escherichia coli JM109 grown in the above conditions was inoculated into 100 mL of LB liquid medium in such a way that the initial bacterial cell concentration would be OD610=0.05, phenol was added at the same time in such a way that the final concentration would be 0, 0.16, or 0.20 mM, and aerobic culture was performed with shaking at 37° C. The growth of bacterial cells was determined by absorbance measurement at OD610.

Pseudomonas putida F1 = conditions: aerobic culture, LB (+glucose) liquid medium, 30° C.
Procedure: as §1
(§3) Pseudomonas putida F1 and S12 were applied to LB agar medium (1% polypeptone, 0.5% yeast extract, 0.5% NaCl and 1.5% agar) and were left stand in the dark at 30° C. for 15 hours.
(§4) An inoculation loop of each of the Pseudomonas putida F1 and S12 grown on a plate as above was inoculated into a test tube containing 10 mL of LB (+glucose) liquid medium (1% polypeptone, 0.5% yeast extract, 0.5% NaCl and 0.4% glucose), and aerobic culture was performed with shaking at 30° C. for 13 hours.
as §2, with “The Pseudomonas putida F1 and S12” for “The Escherichia coli JM109”, “conditions were each” for “conditions was”, “LB (+glucose)” for “LB”, “0, 0.10,” for “0, 0.16,”, “at 30°” for “at 37°”

Pseudomonas putida S12 = conditions: aerobic culture, LB (+glucose) liquid medium, 30° C.
Procedure: as §1, §3, §4
as §2, with “The Pseudomonas putida F1 and S12” for “The Escherichia coli JM109”, “conditions were each” for “conditions was”, “LB (+glucose)” for “LB”, “0, 0.10,” for “0, 0.16,”, “at 30°” for “at 37°”

[1] = system: Corynebacterium glutamicum R; conditions: aerobic culture, A liquid medium, 33° C.
Procedure: as §1
Corynebacterium glutamicum R was applied to A agar medium (2 g of (NH2)2CO, 7 g of (NH4)2SO4, 0.5 g of KH2PO4, 0.5 g of K2HPO4, 0.5 g of MgSO4.7H2O, 1 mL of 0.06% (w/v) Fe2SO4.7H2O+0.042% (w/v) MnSO4.2H2O, 1 mL of 0.02% (w/v) biotin solution, 2 mL of 0.01% (w/v) thiamin solution, 2 g of yeast extract, 7 g of vitamin assay casamino acid, 40 g of glucose, and 15 g of agar were suspended in 1 L of distilled water) and was left stand in the dark at 33° C. for 15 hours.
An inoculation loop of the Corynebacterium glutamicum R grown on a plate as above was inoculated into a test tube containing 10 mL of A liquid medium (2 g of (NH2)2CO, 7 g of (NH4)2SO4, 0.5 g of KH2PO4, 0.5 g of K2HPO4, 0.5 g of MgSO4.7H2O, 1 mL of 0.06% (w/v) Fe2SO4.7H2O+0.042% (w/v) MnSO4.2H2O, 1 mL of 0.02% (w/v) biotin solution, 2 mL of 0.01% (w/v) thiamin solution, 2 g of yeast extract, 7 g of vitamin assay casamino acid, and 40 g of glucose were suspended in 1 L of distilled water) and was aerobically cultured with shaking at 33° C. for 13 hours.
as §2, with “Corynebacterium glutamicum R” for “Escherichia coli JM109”, “A” for “LB”, “0.16, 0.2, 0.24,” for “0.16,”, “0.32” for “0.20”, “33°” for “37°”

Oc1ccccc1 [phenol]
proliferation of Escherichia coli (OD610) (Escherichia coli JM109; 0.16% phenol): significantly affected
proliferation of Escherichia coli (OD610) (Escherichia coli JM109; 0.20% phenol): completely inhibited
proliferation of Pseudomonas putida F1 (OD610) (Pseudomonas putida F1; 0.10% phenol): significantly affected
proliferation of Pseudomonas putida F1 (OD610) (Pseudomonas putida F1; 0.20% phenol): completely inhibited
proliferation of Pseudomonas putida S12 (OD610) (Pseudomonas putida S12; 0.10% phenol): significantly affected
proliferation of Pseudomonas putida S12 (OD610) (Pseudomonas putida S12; 0.20% phenol): completely inhibited
proliferation of Corynebacterium glutamicum (OD610) ([1]; 0.16% phenol): hardly affected
proliferation of Corynebacterium glutamicum (OD610) ([1]; 0.20% phenol): favorable growth
proliferation of Corynebacterium glutamicum (OD610) ([1]; 0.24% phenol): able to proliferate
